Measurements reported in patent US4613586A, “Gastrin releasing peptide-like peptides” (Board of Trustees of the Leland Stanford Junior University, priority 1984, dated 1986).
No end group written: not given here.

Experiments:
Assay type in all cases: binding, rabbit
[1] = tested on: GRP(1-27) antisera Code R3-2; test: GRP carboxyterminal radioimmunoassay (crossreactivity, displacement of 125I-GRP(1-27) trace); details: for Percent Crossreactivity in RIA GRP(1-27) Code R3-2: antisera dilution 1:20,000, GRP(1-27) trace and standard, based on amount of unlabeled peptide for 50 percent displacement, highest concentration tested 1 μM; for Crossreactivity with GRP carboxyterminal antiserum (in words): summary of Table 1
Source text: (§1) Three GRP antisera were generated in rabbits against synthetic porcine GRP and GRP(1-16) (Peninsula Laboratories, San Carlos, CA) linked by a water soluble carbodiimide to bovine throglobulin (as described by Weber, E., Evans, C. J., Chang, J-K. and Barchas, J. D., J. Neurochem 38, 436-447 (1982). RIA conditions have been described in Weber, E., Evans, C. J., and Barchas, J. D., Nature 299, 77-79 (1982). Three GRP RIA's were utilized, the specificity of these RIA's is indicated in Table 1.
(§2) An antisera dilution of 1:20,000 for the GRP(1-27) R3-2 antisera and a dilution of 1:15,000 for the GRP(1-16) R2-6A were used for RIA. For these RIA's GRP(1-27) was used as ^125 I-trace and standard. An antisera dilution of 1:20,000 for GRP(1-16) R2-6B and GRP(1-16) trace and standard were used in the GRP(1-16) carboxyterminal assay. Crossreactivity was based on the amount of unlabeled peptide needed to obtain a 50 percent displacement of ^125 I-trace from the antisera. The highest concentration of unlabeled peptide tested was 1 μM.

[2] = tested on: GRP(1-16) antisera Code R2-6A; test: GRP aminoterminal radioimmunoassay (crossreactivity, displacement of 125I-GRP(1-27) trace); details: summary of Table 1
Source text: as §1, §2

[3] = tested on: GRP(1-16) antisera Code R2-6B; test: GRP(1-16) carboxyterminal radioimmunoassay (crossreactivity, displacement of 125I-GRP(1-16) trace); details: summary of Table 1
Source text: as §1, §2

Compound	Percent Crossreactivity in RIA GRP(1-27) Code R3-2 [1] [%]	Crossreactivity with GRP carboxyterminal antiserum (in words) [1]	Crossreactivity in GRP aminoterminal RIA (in words) [2]	Crossreactivity with GRP(1-16) carboxyterminal antisera (in words) [3]
APVSVGGGTVLAKMYPRGNHWAVGHLM-NH2 [GRP]	100	crossreacted	crossreacted	little crossreactivity
CSCC[C@H](NC(=O)[C@H](CC(C)C)NC(=O)[C@H](Cc1c[nH]cn1)NC(=O)CNC(=O)[C@@H](NC(=O)[C@H](C)NC(=O)[C@H](Cc1c[nH]c2ccccc12)NC(=O)[C@H](Cc1c[nH]cn1)NC(=O)[C@H](CC(N)=O)NC(=O)CN)C(C)C)C(N)=O [GRP(18-27), Gly-Asn-His-Trp-Ala-Val-Gly-His-Leu-Met-NH2]	60	crossreacted	not	–
CSCC[C@H](NC(=O)[C@H](CC(C)C)NC(=O)[C@H](Cc1cnc[nH]1)NC(=O)CNC(=O)[C@@H](NC(=O)[C@H](C)NC(=O)[C@H](Cc1c[nH]c2ccccc12)NC(=O)[C@H](CCC(N)=O)NC(=O)[C@H](CC(N)=O)NC(=O)CNC(=O)[C@H](CC(C)C)NC(=O)[C@H](CCCN=C(N)N)NC(=O)[C@H](CCC(N)=O)NC(=O)[C@@H]1CCC(=O)N1)C(C)C)C(N)=O [Bombesin]	30	crossreacted	–	–
